Here are results for two compounds from US20070015739A1, “Use of non-antibacterial tetracycline formulations for inhibiting bacterial spores” (priority 2005, published 2007).

The nature of data set [1]: Plasma or serum concentration in humans. Conditions: dose of about 10 to about 20 mg/day.
Data set [2] has as its system Bacillus cereus ATCC 10987 spores. It counts as cell-based.
In data set [3] the test system is spores (Bacillus cereus ATCC 10987). It counts as cell-based.
Data set [4] relates to B. anthracis spores. Conditions: guinea pig, in vivo; cited from earlier work.

“Also recorded” adds a separate entry of the source. Read-outs that look alike come from different tables or passages of the source.

As for `NC(=O)C1=C(O)C[C@@H]2C[C@@H]3Cc4cccc(O)c4C(=O)C3=C(O)[C@]2(O)C1=O` [COL-3, 6-demethyl-6-deoxy-4-de(dimethylamino)tetracycline], the “plasma or serum concentrations” value in data set [1] is given as “about 1.0 μg/ml”. Also, the “rate of decrease in absorbance in the presence and absence of COL-3” value in data set [2] is recorded as “not significantly different”. The “inhibition of the early phase (initial stages) of germination” value in data set [2] (37° C.) is on record as “did not inhibit; also recorded: no effect”. In addition, in data set [3], the “early germination (Gram stain)” value was “occurred in both the presence and absence of COL-3”; the “minimum concentration to inhibit outgrowth” value was found to be 1 μg per ml; the “outgrowth into vegetative cells” value is listed as “inhibited”. Moreover, the “development of spores into vegetative cells (Gram stain)” value in data set [3] (time=40 min) was “no further development”. Moreover, the “development of spores into vegetative cells (Gram stain)” value in data set [3] (time=60 min) was “do not develop”.
`CN(C)[C@@H]1C(O)=C(C(N)=O)C(=O)[C@@]2(O)C(O)=C3C(=O)c4c(O)cccc4[C@@](C)(O)[C@H]3C[C@@H]12` [tetracycline]: the “death of infected animals during treatment” value in data set [4] is “prevented death”.
